Laboratory results: patent US7348425B2, “Inhibitors of HCV replication” (Bristol-Myers Squibb Company, priority 2004, dated 2008)

Experiments:
[1] = molecular target: T1, HCV NS5B RdRp genotype 1b (Hepatitis C virus genotype 1b, UniProt Q9WMX2); assay: Modified HCV NS5B RdRp enzyme assay (with preincubation); assay type: biochemical; details: modified method (with preincubation)
T1 construct: The protein was expressed with an 18 amino acid C-terminal truncation to enhance the solubility; made in house; host or cells: E. coli BL21 (DE3), pET21a
T1 sequence (Q9WMX2 2420-2992): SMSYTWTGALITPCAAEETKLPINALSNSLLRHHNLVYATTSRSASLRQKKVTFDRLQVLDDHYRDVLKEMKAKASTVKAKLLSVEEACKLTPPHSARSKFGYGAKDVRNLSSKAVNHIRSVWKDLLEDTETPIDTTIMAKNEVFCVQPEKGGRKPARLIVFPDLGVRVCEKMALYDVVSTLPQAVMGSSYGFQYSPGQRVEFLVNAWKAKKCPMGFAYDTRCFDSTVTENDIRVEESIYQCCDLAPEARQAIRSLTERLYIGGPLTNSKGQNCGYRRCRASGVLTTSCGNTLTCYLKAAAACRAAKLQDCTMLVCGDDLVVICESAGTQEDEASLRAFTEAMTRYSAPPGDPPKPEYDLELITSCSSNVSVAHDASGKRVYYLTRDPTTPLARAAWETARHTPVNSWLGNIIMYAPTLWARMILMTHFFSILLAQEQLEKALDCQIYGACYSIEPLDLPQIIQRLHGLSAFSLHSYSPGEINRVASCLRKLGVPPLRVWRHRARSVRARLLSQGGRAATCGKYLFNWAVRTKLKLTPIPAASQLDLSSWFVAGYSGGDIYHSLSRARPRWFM
Procedure, shortened: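 C-terminally truncated (Δ18) genotype 1b NS5B from E. coli was preincubated (14 nM) with compound, then reaction started with polyA template (0.2 nM), ³H-UTP (0.29 μM) and dT12 primer (20 nM) precaptured on SPA beads. Reaction ran 4 h at 30 °C in pH 7.5 Hepes buffer with 2% DMSO. IC50 came from seven concentrations.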

HCV replicon = HCV replicon FRET assay; assay type: cell-based; details: Hepatitis C virus; FRET assay; read-out: EC50
Procedure, shortened: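 Replicon cells (± Renilla luciferase reporter) incubated with titrated compound at 37 °C; NS3 protease activity read by FRET peptide cleavage (20 uM EDANS/DABCYL substrate, 340/490 nm kinetic) or luciferase.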

Row | SMILES | IC50 [1] [nM] | EC50 (HCV replicon) [nM]
1 | CN(C)S(=O)(=O)NC(=O)c1ccc2c(C3CCCCC3)c3n(c2c1)CC(=O)Nc1ccccc1-3 | 20 to 1000 | 10 to 1000
2 | CCOC(=O)/C=C/c1ccc(NC(=O)C2(NC(=O)c3ccc4c(C5CCCCC5)c5n(c4c3)CCCc3cc(O)ccc3-5)CCCC2)cc1 | > 1000 | 10 to 1000
3 | O=C(NS(=O)(=O)N1CCCC1)c1ccc2c(C3CCCCC3)c3n(c2c1)CC(C(=O)N1CCOCC1)=Cc1ccccc1-3 | 20 to 1000 | 10 to 1000
4 | CC(C)(C)S(=O)(=O)NC(=O)c1ccc2c(C3CCCCC3)c3n(c2c1)CC(C(=O)N1CCOCC1)=Cc1ccccc1-3 | 20 to 1000 | 10 to 1000
5 | CCS(=O)(=O)NC(=O)c1ccc2c(C3CCCCC3)c3n(c2c1)CC(C(=O)N1CCOCC1)Cc1ccccc1-3 (stereo not drawn) | 20 to 1000 | 10 to 1000
6 | CC(C)S(=O)(=O)NC(=O)c1ccc2c(C3CCCCC3)c3n(c2c1)CC(C(=O)N1CCOCC1)Cc1ccccc1-3 (stereo not drawn) | 20 to 1000 | 10 to 1000
7 | COc1ccc2c(c1)CC(C(=O)N1CCOCC1)Cn1c-2c(C2CCCCC2)c2ccc(C(=O)O)cc21 (stereo not drawn) | 20 to 1000 | 10 to 1000
8 | O=C(NS(=O)(=O)c1ccccc1)c1ccc2c(C3CCCCC3)c3n(c2c1)CC(C(=O)N1CCOCC1)Cc1ccccc1-3 (stereo not drawn) | 20 to 1000 | 10 to 1000
9 | COC(=O)C1=Cc2ccccc2-c2c(C3CCCCC3)c3ccc(C(=O)NS(=O)(=O)N(C)C)cc3n2C1 | 20 to 1000 | 10 to 1000
10 | COC(=O)c1ccc2c(C3CCCCC3)c3n(c2c1)CC(C(=O)N1CCCOCC1)=Cc1ccccc1-3 | > 1000 | 1000 to 10000
11 | O=C(O)c1ccc2c(C3CCCCC3)c3n(c2c1)CC(C(=O)N1CCCOCC1)=Cc1ccccc1-3 | 20 to 1000 | 10 to 1000
12 | CN(C)S(=O)(=O)NC(=O)c1ccc2c(C3CCCCC3)c3n(c2c1)CC(C(=O)O)=Cc1ccccc1-3 | 20 to 1000 | > 10000
13 | O=C(O)/C=C/c1ccc(NC(=O)C2(NC(=O)c3ccc4c(C5CCCCC5)c5n(c4c3)CCNc3ccccc3-5)CCCC2)cc1 | 20 to 1000 | 10 to 1000
14 | O=C(O)c1ccc2c(C3CCCCC3)c3n(c2c1)CNc1ccccc1-3 | 20 to 1000 | 10 to 1000
15 | COC(=O)c1ccc2c(C3CCCCC3)c3n(c2c1)CNc1ccccc1-3 | > 1000 | 10 to 1000
16 | COC(=O)c1ccc2c(C3CCCCC3)c3n(c2c1)CCNc1ccccc1-3 | > 1000 | 10 to 1000
17 | COC(=O)c1ccc2c(C3CCCCC3)c3n(c2c1)CC(C(=O)N1CCOCC1)Cc1ccncc1-3 (stereo not drawn) | > 1000 | 10 to 1000
18 | O=C(O)c1ccc2c(C3CCCCC3)c3n(c2c1)CC(C(=O)N1CCOCC1)Cc1ccncc1-3 (stereo not drawn) | 20 to 1000 | 10 to 1000
19 | CCN(C)S(=O)(=O)NC(=O)c1ccc2c(C3CCCCC3)c3n(c2c1)CC(C(=O)N1CCOCC1)=Cc1ccccc1-3 | 20 to 1000 | 10 to 1000
20 | CCN(CC)S(=O)(=O)NC(=O)c1ccc2c(C3CCCCC3)c3n(c2c1)CC(C(=O)N1CCOCC1)=Cc1ccccc1-3 | 20 to 1000 | 10 to 1000
21 | CC(C)NS(=O)(=O)NC(=O)c1ccc2c(C3CCCCC3)c3n(c2c1)CC(C(=O)N1CCOCC1)=Cc1ccccc1-3 | 20 to 1000 | 10 to 1000
22 | O=C(NS(=O)(=O)N1CCCC1)c1ccc2c(C3CCCCC3)c3n(c2c1)CC(C(=O)N1CCOCC1)Cc1ccccc1-3 (stereo not drawn) | 20 to 1000 | 10 to 1000
23 | CN(C)S(=O)(=O)NC(=O)c1ccc2c(C3CCCCC3)c3n(c2c1)CC(C(=O)N1CCNCC1)=Cc1ccccc1-3 | 20 to 1000 | 10 to 1000
24 | CC(C)(C)OC(=O)N1CCn2c(c(C3CCCCC3)c3ccc(C(=O)O)cc32)-c2ccccc21 | 20 to 1000 | 1000 to 10000
25 | CN(C)S(=O)(=O)NC(=O)c1ccc2c(C3CCCCC3)c3n(c2c1)CCN(C(=O)OC(C)(C)C)c1ccccc1-3 | 20 to 1000 | 10 to 1000
26 | CN(C)S(=O)(=O)NC(=O)c1ccc2c(C3CCCCC3)c3n(c2c1)CCNc1ccccc1-3 | 20 to 1000 | 10 to 1000
27 | COC(=O)c1ccc2c(C3CCCCC3)c3n(c2c1)CC(C(=O)O)=Cc1ccc(Cl)cc1-3 | > 1000 | 1000 to 10000

Row | SMILES | IC50 [1] [nM] | EC50 (HCV replicon) [nM]
28 | O=C(O)c1ccc2c(C3CCCCC3)c3n(c2c1)CC(C(=O)N1CCOCC1)=Cc1ccc(Cl)cc1-3 | 20 to 1000 | 1000 to 10000
29 | CN(C)S(=O)(=O)NC(=O)c1ccc2c(C3CCCCC3)c3n(c2c1)CC(C(=O)N1CCOCC1)=Cc1ccc(Cl)cc1-3 | 20 to 1000 | 1000 to 10000
30 | COC(=O)C1=C(C)c2ccccc2-c2c(C3CCCCC3)c3ccc(C(=O)OC)cc3n2C1 | > 1000 | 10 to 1000
31 | CN(C)S(=O)(=O)NC(=O)c1ccc2c(C3CCCCC3)c3n(c2c1)CC(C(=O)N1CCOCC1)=Cc1ccncc1-3 | 20 to 1000 | 10 to 1000
32 | COC(=O)c1ccc2c(C3CCCCC3)c3n(c2c1)CC(C(=O)O)=C(C)c1ccccc1-3 | > 1000 | 1000 to 10000
33 | Cn1c(C(=O)O)cc2cc(NC(=O)C3(NC(=O)c4ccc5c(C6CCCCC6)c6n(c5c4)CCNc4ccccc4-6)CCCC3)ccc21 | 20 to 1000 | 10 to 1000
34 | O=C(O)c1ccc2c(c1)C1CCN(C(=O)N3CCOCC3)c3ccccc3C1=C2C1CCCCC1 (stereo not drawn) | > 1000 | 1000 to 10000
35 | CN(C)C(=O)NC(=O)c1ccc2c(C3CCCCC3)c3n(c2c1)CC(C(=O)N1CCOCC1)=Cc1ccccc1-3 | 20 to 1000 | 1000 to 10000
36 | CN(C)S(=O)(=O)NC(=O)c1ccc2c(c1)N1C(O)c3cc(OCc4ccccc4)ccc3C1C2 (stereo not drawn) | 20 to 1000 | 10 to 1000
37 | COC(=O)c1ccc2c(C3CCCCC3)c3n(c2c1)CC(C(=O)N1CCOCC1)=C(C)c1ccccc1-3 | > 1000 | 1000 to 10000
38 | CC1=C(C(=O)N2CCOCC2)Cn2c(c(C3CCCCC3)c3ccc(C(=O)O)cc32)-c2ccccc21 | 20 to 1000 | 10 to 1000
39 | COC(=O)c1ccc2c(C3CCCCC3)c3n(c2c1)C(O)c1cc(Cl)ccc1-3 (stereo not drawn) | > 1000 | 10 to 1000
40 | COc1cc(CNC(=O)c2ccc3c(C4CCCCC4)c4n(c3c2)CC(C(=O)N2CCOCC2)=Cc2ccccc2-4)ccc1O | 20 to 1000 | 10 to 1000
41 | COC(=O)C1=Cc2cc(Cl)ccc2-c2c(C3CCCCC3)c3ccc(C(=O)OC)cc3n2C1 | > 1000 | 1000 to 10000
42 | CCN(CC)C1CCN(C(=O)C2=Cc3ccccc3-c3c(C4CCCCC4)c4ccc(C(=O)NS(=O)(=O)N(C)C)cc4n3C2)C1 (stereo not drawn) | 20 to 1000 | 10 to 1000
43 | CN(C)S(=O)(=O)NC(=O)c1ccc2c(C3CCCCC3)c3n(c2c1)CC(C(=O)N1CCCOCC1)=Cc1ccccc1-3 | 20 to 1000 | 10 to 1000
44 | O=C(O)c1ccc2c(C3CCCCC3)c3n(c2c1)CCN(C(=O)Nc1ccccc1)c1ccccc1-3 | 20 to 1000 | 1000 to 10000
45 | O=C(O)c1ccc2c(C3CCCCC3)c3n(c2c1)CCN(C(=O)NC1CCCC1)c1ccccc1-3 | 20 to 1000 | 10 to 1000
46 | CC(C)N(C)C(=O)C1=Cc2ccccc2-c2c(C3CCCCC3)c3ccc(C(=O)NS(=O)(=O)N(C)C)cc3n2C1 | 20 to 1000 | 10 to 1000
47 | CN(CC(O)CO)C(=O)C1=Cc2ccccc2-c2c(C3CCCCC3)c3ccc(C(=O)NS(=O)(=O)N(C)C)cc3n2C1 (stereo not drawn) | 20 to 1000 | 10 to 1000
48 | CC(C)N(C(=O)C1=Cc2ccccc2-c2c(C3CCCCC3)c3ccc(C(=O)NS(=O)(=O)N(C)C)cc3n2C1)C(C)C | 20 to 1000 | 10 to 1000
49 | CCN(CC)C(=O)C1=Cc2ccccc2-c2c(C3CCCCC3)c3ccc(C(=O)NS(=O)(=O)N(C)C)cc3n2C1 | 20 to 1000 | 10 to 1000
50 | COC(=O)C1=Cc2cc(OCc3ccccc3)ccc2-c2c(C3CCCCC3)c3ccc(C(=O)NS(=O)(=O)N(C)C)cc3n2C1 | 20 to 1000 | 10 to 1000
51 | CC1CN(C(=O)C2=Cc3ccccc3-c3c(C4CCCCC4)c4ccc(C(=O)NS(=O)(=O)N(C)C)cc4n3C2)CC(C)N1 (stereo not drawn) | 20 to 1000 | 10 to 1000
52 | CN(CCO)C(=O)C1=Cc2ccccc2-c2c(C3CCCCC3)c3ccc(C(=O)NS(=O)(=O)N(C)C)cc3n2C1 | 20 to 1000 | 10 to 1000
53 | CN(C)C(=O)N1CCn2c(c(C3CCCCC3)c3ccc(C(=O)NS(=O)(=O)N(C)C)cc32)-c2ccccc21 | 20 to 1000 | 10 to 1000
54 | CC(=O)N1CCn2c(c(C3CCCCC3)c3ccc(C(=O)NS(=O)(=O)N(C)C)cc32)-c2ccccc21 | 20 to 1000 | 10 to 1000
